Patent US8188008B2, “Herbicidally and insecticidally active 4-phenyl-substituted pyridazinones” (Bayer Cropscience AG, priority 2008, dated 2012)

Test system: green peach aphid (Myzus persicae)
Assay: Myzus test (MYZUPE spray treatment)
Assay type: in vivo
Settings: spray treatment of Chinese cabbage discs, application rate 500 g/ha; 100% = all aphids killed
Description: Myzus Test (MYZUPE Spray Treatment) [table] To produce a suitable preparation of active compound, 1 part by weight of active compound is mixed with the stated amounts of solvents and emulsifier, and the concentrate is diluted with emulsifier-containing water to the desired concentration. Discs of Chinese cabbage (Brassica pekinensis) which are infested by all stages of the green peach aphid (Myzus persicae) are sprayed with an active compound preparation of the desired concentration. After the desired period of time, the effect in % is determined. 100% means that all aphids have been killed; 0% means that none of the aphids have been killed.

## Cn1ncc(O)c(-c2ccc(Cl)c(Cl)c2)c1=O [I-1-a-4]
  effect in % (aphids killed): at least 80%
